The source of these data is patent publication US20100035926A1, “PYRAZOLE DERIVATIVES AS NON-STEROIDAL GLUCOCORTICOID RECEPTOR LIGANDS” (priority 2006, published 2010).

Where two headings read alike, the source gives them in different places.

In one data set the target is T1, Progesterone Receptor (Homo sapiens, UniProt P06401).
T1 construct: expressed in transfected cells; host or cells: CV-1 cells transduced with PRb-BacMam and MMTV-BacMam
T1 sequence (P06401 1-933): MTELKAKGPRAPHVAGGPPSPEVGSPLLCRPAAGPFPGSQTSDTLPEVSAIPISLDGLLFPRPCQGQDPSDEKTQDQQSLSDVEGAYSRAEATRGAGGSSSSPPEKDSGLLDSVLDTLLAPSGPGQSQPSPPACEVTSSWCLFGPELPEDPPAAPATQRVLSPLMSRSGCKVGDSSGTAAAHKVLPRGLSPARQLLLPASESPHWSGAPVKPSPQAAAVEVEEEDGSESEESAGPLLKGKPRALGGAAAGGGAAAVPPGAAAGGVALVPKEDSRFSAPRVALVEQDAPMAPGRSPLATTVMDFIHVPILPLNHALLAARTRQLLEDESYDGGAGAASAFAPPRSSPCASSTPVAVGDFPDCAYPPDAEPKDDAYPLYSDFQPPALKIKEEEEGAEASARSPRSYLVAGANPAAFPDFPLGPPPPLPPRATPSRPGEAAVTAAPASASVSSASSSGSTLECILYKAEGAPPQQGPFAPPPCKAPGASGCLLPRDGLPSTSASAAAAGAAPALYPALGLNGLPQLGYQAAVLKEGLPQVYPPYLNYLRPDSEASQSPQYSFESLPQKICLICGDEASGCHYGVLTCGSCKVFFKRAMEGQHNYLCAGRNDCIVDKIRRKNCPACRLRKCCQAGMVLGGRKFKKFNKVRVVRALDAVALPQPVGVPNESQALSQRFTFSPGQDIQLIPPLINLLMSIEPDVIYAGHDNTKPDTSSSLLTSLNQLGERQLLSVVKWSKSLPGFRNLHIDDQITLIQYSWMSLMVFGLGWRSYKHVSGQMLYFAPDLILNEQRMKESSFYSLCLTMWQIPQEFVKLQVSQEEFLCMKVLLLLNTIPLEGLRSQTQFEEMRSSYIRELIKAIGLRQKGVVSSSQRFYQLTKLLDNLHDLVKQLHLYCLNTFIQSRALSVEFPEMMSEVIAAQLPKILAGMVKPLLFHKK
Nature of the data set: Assay for Progesterone Receptor Agonist Activity (CV-1 cells, PRb-BacMam, MMTV-BacMam). It counts as cell-based. Conditions: at least once in this assay, read-out: progesterone receptor agonist pEC50 (converted). How it is done:
A T225 flask of CV-1 cells at a density of 80% confluency was washed with PBS, detached from the flask using 0.25% trypsin and counted using a Sysmex KX-21N. Cells were diluted in DMEM containing 10% Hyclone, 2 mM […] and 1% Pen/Strep at 140 cells/μl and transduced with 10% PRb-BacMam and 10% MMTV-BacMam. […] of suspension cells were dispensed to each well of white Nunc 384-well plates, containing compounds at the required concentration. After 24 hr 10 μl of Steadylite were added to each well of the plates. Plates were incubated in the dark for 10 min before reading them on a Viewlux reader. Dose response curves were constructed from which pEC50 values were estimated.

A short description of data set [1]: Assay for Brain Penetrance. It counts as in vivo. Conditions: brain and plasma, rat, single intravenous dose 1 mg/kg, read-out: brain to plasma ratio. On the procedure: Each rat received a single intravenous dose at a level of 1 mg/kg. The dose was formulated in 10% DMSO/50% PEG200/40% sterile water. Terminal blood samples were taken at 5 or 15 mins after dosing, by cardiac puncture following anaesthesia with isofluorane. The brains were removed at the same time point.
The compounds were extracted from 20 μL plasma by protein precipitation using 120 μL acetonitrile containing an analogue compound as an internal standard. The filtered extracts were collected into a 96 well plate and were diluted with an equal volume of 10% acetonitrile containing 0.1% formic acid in water (v/v). The plate was then mixed on a plate shaker for at least 5 mins before analysis by LC-MS/MS against a calibration line prepared in control plasma.
Each brain was weighed, then homogenised in 3 ml acetonitrile:water (10:90v/v). The compounds were extracted from 200 μL of the resulting homogenate by protein precipitation using 600 μL acetonitrile containing an analogue compound as an internal standard. The extracts were centrifuged and 150 μl of each was filtered and transferred to a 96 well plate. The aliquot was diluted with 10% acetonitrile containing 0.1% formic acid in water (v/v). The plate was mixed on a plate shaker for at least 5 mins before analysis by LC-MS/MS against a calibration line prepared in control brain homogenate.

For another data set, the target named is T2, glucocorticoid receptor (Homo sapiens, UniProt P04150).
T2 construct: a partially purified full length glucocorticoid receptor
T2 sequence (P04150 1-777): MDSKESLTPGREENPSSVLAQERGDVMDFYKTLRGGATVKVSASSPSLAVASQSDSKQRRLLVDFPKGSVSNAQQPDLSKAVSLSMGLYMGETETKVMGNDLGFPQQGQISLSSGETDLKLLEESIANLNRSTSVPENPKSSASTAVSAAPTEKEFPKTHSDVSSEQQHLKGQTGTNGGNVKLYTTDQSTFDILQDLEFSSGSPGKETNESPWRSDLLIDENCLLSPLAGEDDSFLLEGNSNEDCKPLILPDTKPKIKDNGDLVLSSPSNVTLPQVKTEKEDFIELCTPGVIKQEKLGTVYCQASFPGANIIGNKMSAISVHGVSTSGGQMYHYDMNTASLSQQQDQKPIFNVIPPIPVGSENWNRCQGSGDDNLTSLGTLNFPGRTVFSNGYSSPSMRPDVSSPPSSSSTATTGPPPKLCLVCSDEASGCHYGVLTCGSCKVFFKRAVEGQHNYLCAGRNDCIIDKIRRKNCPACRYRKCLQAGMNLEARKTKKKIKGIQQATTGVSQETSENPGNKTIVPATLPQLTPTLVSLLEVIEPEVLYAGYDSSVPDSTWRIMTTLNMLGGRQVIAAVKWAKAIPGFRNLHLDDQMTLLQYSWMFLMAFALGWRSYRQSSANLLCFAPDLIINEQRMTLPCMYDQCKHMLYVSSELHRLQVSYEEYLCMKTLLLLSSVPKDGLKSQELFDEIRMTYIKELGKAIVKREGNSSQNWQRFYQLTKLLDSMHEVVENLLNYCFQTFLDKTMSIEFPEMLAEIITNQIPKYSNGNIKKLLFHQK
Nature of the data set: Glucocorticoid Receptor Binding Assay (fluorescence polarisation, displacement of Alexa 555 labelled dexamethasone derivative). The conditions noted are these: at least once in this assay; read-out: glucocorticoid binding pIC50 (converted). The essentials:
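Partially purified full-length GR incubated with test compound and fluorescent dexamethasone plus GR-stabilising buffer components, 2 hr at room temperature in the dark. Binding scored as displacement of tracer, read as decrease in fluorescence polarisation.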

Data set [2] has as its target T3, GR (Homo sapiens, UniProt P04150).
T3 construct: endogenous in cells; host or cells: A549 (human lung carcinoma, ECACC No. 86012804), stably transfected with reporter plasmids only
T3 sequence (P04150 1-777): T2 sequence (P04150 1-777)
Nature of the data set: GR Functional Assay - NFκB Assay (A549 SPAP cells, TNFα stimulated). It counts as cell-based. The conditions noted are these: for Emax: agonists, read-out: average maximum asymptote in the NFkB assay. The essentials: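 Stably transfected A549 SPAP cells at 0.16×10^6/ml in DMEM with 10% FCS were added to compound and stimulated with TNFα to drive NFκB-dependent SPAP expression. After 1 hr equilibration at room temperature, SPAP was read colorimetrically with pNPP in diethanolamine buffer, pH 9.8.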

In data set [3] the target is T3, GR. Nature of the data set: GR Agonist Assay - MMTV Assay (A549 MMTV cells, renilla luciferase reporter). Conditions: 6 h, agonists, read-out: average maximum asymptote in the MMTV agonist assay. It counts as cell-based. The essentials: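 Stably transfected A549 MMTV cells carry a GR-driven luciferase reporter. Cells at 0.1×10^6/ml in DMEM with 10% FCS and 25 mM HEPES were added to wells containing compound. After detection reagent, plates were held about 15 mins at room temperature and luminescence was read.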

The mark [4] stands for this setting: at least once in the NFkB assay, A549 SPAP cells, read-out: pIC50 in the NFkB assay (converted).
Setting [5] is: at least once, examples listed as agonists in NFkB and MMTV assays, read-out: potency pIC50 in the NFKB assay (converted).

With `CCN(CC(O)(CNC(=O)c1cnn(-c2ccc(F)cc2)c1N)C(F)(F)F)C(=O)c1ncccc1Cl` (single isomer, unassigned) [Example 3 Enantiomer 1, N-[2-[({[5-Amino-1-(4-fluorophenyl)-1H-pyrazol-4-yl]carbonyl]amino)methyl]-3,3,3-trifluoro-2-hydroxypropyl}-3-chloro-N-ethyl-2-Pyridinecarboxamide], the EC50 on Progesterone Receptor is > 1000 nM. Further, the Kp at 5 min in data set [1] was ≥ 0.1.
On to `CCN(CC(O)(CNC(=O)c1cnn(-c2ccccc2)c1N)C(F)(F)F)C(=O)c1ccccc1F` (racemic) [Example 45 (racemic), 5-amino-N-[2-({ethyl[(2-fluorophenyl)car-bonyl]amino}methyl)-3,3,3-trifluoro-2-hydroxypropyl]-1-phenyl-1H-pyrazole-4-carboxamide], for which the results for the IC50 at glucocorticoid receptor, on GR [2] (setting [4]) and at GR [2] (setting [5]) were < 1000 nM, < 1000 nM and < 316 nM, respectively. Besides, the Emax on GR [2] (A549 SPAP cells) and on GR [3] was ≥ 40% each time. Moreover, the EC50 on Progesterone Receptor is > 1000 nM.
Take `Nc1c(C(=O)NCC(O)(CN(CCF)C(=O)c2ccccc2Cl)C(F)(F)F)cnn1-c1ccc(F)cc1` (racemic) [Example 15 (racemic), 5-amino-N-(2-{[[(2-chlorophenyl)car-bonyl](2-fluoroethyl)amino]methyl}-3,3,3-trifluoro-2-hydroxypropyl)-1-(4-fluorophenyl)-1H-pyrazole-4-carboxamide]: the IC50 at glucocorticoid receptor was < 1000 nM; at GR [2] (setting [4]) it was < 1000 nM; at GR [2] (setting [5]), < 316 nM. Besides, the Emax on GR [2] (A549 SPAP cells) and on GR [3] was ≥ 40% in each case. Besides, the EC50 at Progesterone Receptor is > 1000 nM.
`CCN(CC(O)(CNC(=O)c1cnn(-c2ccc(F)c(F)c2)c1N)C(F)(F)F)C(=O)c1ccccc1` (racemic) [Example 24 (racemic), 5-amino-1-(3,4-difluorophenyl)-N-(2-{[ethyl(phenylcarbonyl)amino]methyl}-3,3,3-trifluoro-2-hydroxypropyl)-1H-pyrazole-4-carboxamide]: the IC50 at glucocorticoid receptor was < 1000 nM; on GR [2] (setting [4]), < 1000 nM; on GR [2] (setting [5]), < 316 nM. The Emax at GR [2] (A549 SPAP cells) and at GR [3] was ≥ 40% each time. In addition, the Kp at 5 min in data set [1] is ≥ 0.1.
Take `CCN(CC(O)(CNC(=O)c1cnn(-c2ccc(F)cc2)c1N)C(F)(F)F)C(=O)c1ccccc1` (racemic) [Example 14 (racemic), 5-amino-N-(2-{[ethyl(phenylcar-bonyl)amino]methyl}-3,3,3-trifluoro-2-hydroxypropyl)-1-(4-fluorophenyl)-1H-pyrazole-4-carboxamide]: the IC50 is < 1000 nM at glucocorticoid receptor, < 1000 nM on GR [2] (setting [4]) and < 316 nM at GR [2] (setting [5]). In addition, the Emax at GR [2] (A549 SPAP cells) and at GR [3] was ≥ 40% throughout. For the same compound, on Progesterone Receptor, the EC50 is > 1000 nM.
`CN(CC(O)(CNC(=O)c1cnn(-c2ccc(F)cc2)c1N)C(F)(F)F)C(=O)c1ccccc1F` (racemic) [Example 6 (racemic), 5-amino-1-(4-fluorophenyl)-N-(3,3,3-trifluoro-2-{[[(2-fluorophenyl)car-bonyl](methyl)amino]methyl}-2-hydroxypropyl)-1H-pyrazole-4-carboxamide]: the figures for the IC50 at glucocorticoid receptor, at GR [2] (setting [4]) and on GR [2] (setting [5]) were < 1000 nM, < 1000 nM and < 316 nM, respectively. Moreover, the Emax on GR [2] (A549 SPAP cells) and at GR [3] was ≥ 40% throughout. For the same compound, the EC50 on Progesterone Receptor is > 1000 nM.
In the case of `Nc1c(C(=O)NCC(O)(CN(CCF)C(=O)c2ccccc2F)C(F)(F)F)cnn1-c1ccc(F)cc1` (single isomer, unassigned) [Example 2 Enantiomer 1, 5-Amino-1-(4-fluorophenyl)-N-[3,3,3-trifluoro-2-([(2-fluoroethyl)[(2-fluorophenyl)carbonyl]amino]methyl)-2-hydroxypropyl]-1H-pyrazole-4-carboxamide], the IC50 at glucocorticoid receptor is < 1000 nM; at GR [2] (setting [4]) it was < 1000 nM; at GR [2] (setting [5]), < 316 nM. Further, the Emax at GR [2] (A549 SPAP cells) and on GR [3] was ≥ 40% throughout. Besides, the EC50 on Progesterone Receptor was > 1000 nM.
